Source: the NIST ThermoML archive (doi:10.1016/j.jct.2013.12.025)

Assay: refractive index (Na D-line) (dimensionless); xn = mol fraction of the nth substance listed
Details: 101 kPa, Liquid, Standard Abbe refractometry

C=C[Si](C)(C)O[Si](C)(C)C=C [1,3-diethenyl-1,1,3,3-tetramethyldisiloxane] + Fc1ccccc1
refractive index
Details	283.15 K	288.15 K	293.15 K	298.15 K	303.15 K
x1 = 0.05	1.46591	1.46302	1.4601	1.45724	1.45427
x1 = 0.1	1.46088	1.45799	1.4551	1.45222	1.44927
x1 = 0.15	1.45637	1.45349	1.45063	1.44775	1.44482
x1 = 0.1993	1.45237	1.44949	1.44664	1.44378	1.44083
x1 = 0.25	1.44858	1.44572	1.44288	1.44002	1.43708
x1 = 0.2999	1.44521	1.44238	1.43954	1.43671	1.43382
x1 = 0.35	1.44212	1.43928	1.43649	1.43366	1.43075
x1 = 0.4	1.43929	1.43648	1.43368	1.43086	1.42798
x1 = 0.45	1.43671	1.4339	1.43109	1.42829	1.42546
x1 = 0.5	1.43427	1.43147	1.42871	1.42592	1.42309
x1 = 0.5501	1.43205	1.42925	1.42651	1.42374	1.42092
x1 = 0.6	1.42996	1.42721	1.42446	1.42171	1.41891
x1 = 0.6501	1.42804	1.4253	1.42257	1.41982	1.41705
x1 = 0.7	1.42627	1.42353	1.4208	1.41808	1.41532
x1 = 0.7501	1.42458	1.42185	1.41913	1.41642	1.41369
x1 = 0.8	1.42302	1.42031	1.41762	1.41493	1.41219
x1 = 0.85	1.42152	1.41883	1.41615	1.41349	1.4108
x1 = 0.8998	1.42015	1.41747	1.4148	1.41213	1.40945
x1 = 0.95	1.41882	1.41617	1.41352	1.41087	1.40819
x1 = 1	1.41758	1.41493	1.41227	1.40963	1.40695

C=C[Si](C)(C)O[Si](C)(C)C=C [1,3-diethenyl-1,1,3,3-tetramethyldisiloxane] + CCc1ccccc1
refractive index
Details	283.15 K	288.15 K	293.15 K	298.15 K	303.15 K
x1 = 0.0501	1.49399	1.49133	1.48864	1.48591	1.48318
x1 = 0.1001	1.48737	1.48473	1.48204	1.47931	1.4766
x1 = 0.1499	1.48124	1.47856	1.47587	1.47319	1.47044
x1 = 0.2001	1.47548	1.47282	1.47013	1.46745	1.46472
x1 = 0.25	1.47011	1.46746	1.46476	1.46206	1.45934
x1 = 0.3	1.46506	1.46243	1.45974	1.45705	1.45432
x1 = 0.3499	1.46032	1.45769	1.45502	1.45233	1.4496
x1 = 0.4	1.45589	1.45324	1.45057	1.44786	1.44516
x1 = 0.4501	1.45171	1.44905	1.44639	1.44368	1.44097
x1 = 0.5	1.44774	1.44509	1.44243	1.43975	1.43705
x1 = 0.5503	1.44396	1.44135	1.43866	1.43599	1.43331
x1 = 0.6	1.44044	1.43779	1.43514	1.43246	1.42979
x1 = 0.6501	1.43706	1.43444	1.43177	1.42909	1.42643
x1 = 0.6999	1.43392	1.43128	1.4286	1.42594	1.42325
x1 = 0.7502	1.43084	1.4282	1.42555	1.42288	1.42022
x1 = 0.8001	1.42794	1.42531	1.42264	1.41999	1.41732
x1 = 0.85	1.42518	1.42258	1.41991	1.41723	1.41458
x1 = 0.8999	1.42257	1.41995	1.41729	1.41464	1.41198
x1 = 0.9498	1.42013	1.41752	1.41486	1.41219	1.40954
x1 = 1	1.41762	1.41498	1.41232	1.40969	1.40704

C=C[Si](C)(C)O[Si](C)(C)C=C [1,3-diethenyl-1,1,3,3-tetramethyldisiloxane] + COc1ccccc1
refractive index
Details	283.15 K	288.15 K	293.15 K	298.15 K	303.15 K
x1 = 0.0501	1.51284	1.51027	1.50766	1.50499	1.50234
x1 = 0.1	1.50406	1.5015	1.49885	1.49617	1.49356
x1 = 0.15	1.49596	1.49337	1.49073	1.48807	1.48543
x1 = 0.2004	1.48841	1.48578	1.48317	1.48051	1.47786
x1 = 0.2499	1.48153	1.47893	1.47631	1.47362	1.47098
x1 = 0.3	1.47505	1.47247	1.46982	1.46716	1.4645
x1 = 0.35	1.46908	1.46651	1.46384	1.46116	1.45851
x1 = 0.3997	1.46353	1.46092	1.45829	1.4556	1.45295
x1 = 0.4499	1.45831	1.45568	1.45303	1.45034	1.4477
x1 = 0.5001	1.45338	1.45077	1.44813	1.44544	1.44279
x1 = 0.5499	1.44883	1.4462	1.44358	1.44089	1.43823
x1 = 0.6	1.4445	1.44188	1.43925	1.43657	1.43393
x1 = 0.6499	1.44046	1.43782	1.43521	1.43252	1.42986
x1 = 0.6999	1.43664	1.43403	1.43139	1.4287	1.42604
x1 = 0.7499	1.43304	1.43043	1.42778	1.4251	1.42244
x1 = 0.8	1.42961	1.42699	1.42434	1.42166	1.41901
x1 = 0.8499	1.42639	1.42377	1.42112	1.41846	1.4158
x1 = 0.8998	1.42333	1.4207	1.41806	1.4154	1.41277
x1 = 0.9499	1.42042	1.41779	1.41515	1.41251	1.40987
x1 = 1	1.41766	1.415	1.41236	1.4097	1.40707
